According to patent US6670391B2, “Benzopyran derivative and antiallergic agent” (Dainippon Ink and Chemicals, Inc., priority 2001, dated 2003):
Where two headings read alike, the source gives them in different places.

Tested on: male Hartley guinea pigs actively sensitized with egg-white albumin
Experiment: Antiallergic Test due to Antigen-Induced Immediate Type Airway Reaction and Delayed Type Airway Reaction
Type: in vivo
Details: Cavia porcellus, po, 10 mg/kg orally once one hour before induction (prednisolone 10 mg/kg orally twice, 16 hours and 2 hours before)
Experimental: Using an ultrasonic nebulizer (NE-U12, manufactured by OMRON Corporation), male Hartley guinea pigs (aged six weeks) were actively sensitized by consecutive 8-day inhalation of a 1 wt % physiological saline of egg-white albumin for 10 minutes a day. After one week passed since the final sensitization, an asthmatic disease state was induced by inhalation of a 2 wt % physiological saline of egg-white albumin for 5 minutes in the same manner. To inhibit the synthesis of endogenous steroid, metyrapone (10 mg/kg) was intravenously administered at 24 hours and one hour before the induction. To inhibit anaphylactic shock, pyrilamine (10 mg/kg) was intraperitoneally administered 30 minutes before inducing the asthmatic reaction.
After inducing the asthmatic reaction, the airway resistance (specific airway resistance Raw) was measured for 1 minute before inducing the asthmatic reaction, and 1 minute, 2 hours, 4 hours, 5 hours, 6 hours, 7 hours, 8 hours, and 23-24 hours after inducing the asthmatic reaction, using an airway resistance measuring apparatus (Pulmos-I, manufactured by M.I.P.S.). An average value of the airway resistance was determined, and an airway resistance increase ratio with respect to the value of the airway resistance before the induction was calculated by the following Equation 1.
Each of the test substances (10 mg/kg) listed in Table 1 was suspended in an aqueous 0.5% methyl cellulose solution, and the suspension was orally administered once one hour before inducing the asthmatic reaction. A positive control substance (prednisolone) was orally administered twice at a dosage of 10 mg/kg 16 hours and 2 hours before inducing the asthmatic reaction. The test was carried out on 8 animals per group.
According to this test procedure, a two-phase increase in airway resistance was observed immediately after inducing the asthmatic reaction and after 4-8 hours passed since inducing the asthmatic reaction. In the present invention, the former increase in airway resistance is referred to as the immediate type asthmatic reaction, while the latter increase in airway resistance is referred to as the delayed type asthmatic reaction. With respect to the evaluation of the drug, for the immediate type asthmatic reaction, the inhibition percentage with respect to the asthmatic reaction inhibiting medium administration group (referring to the group wherein a test drug is not administered after inducing the asthmatic reaction, hereinafter merely referred to as the “medium administration group”) was determined by Equation 2 using the airway resistance increase ratio after one minute gas passed since the induction as an index.
For the delayed type asthmatic reaction, the inhibition percentage with respect to the medium administration group was determined by the following Equation 3 using the area under the curve (AUC4-8) of the airway resistance increase ratio up to 4-8 hours after inducing the asthmatic reaction as an index. As an example, the relationship between the airway resistance increase ratio up to 4-8 hours after inducing the asthmatic reaction of the delayed type asthmatic reaction and time in the medium administration group, the prednisolone administration group, and the compound (216) administration group is shown in FIG. 1. As used herein, the area under the curve showing the relationship between the airway resistance increase ratio and time is (AUC4-8)
Airway resistance increase ratio (%)=(airway resistance after inducing the asthmatic airway resistance−airway resistance before inducing the asthmatic reaction)/(airway resistance before inducing the asthmatic reaction)×100
Inhibition (%)=(1−airway resistance increase ratio after one minute has passed since inducing the asthmatic reaction of the test substance administration group/airway resistance increase ratio after one minute has passed since inducing the asthmatic reaction of the medium administration group)×100 […]

[1] = 1 min, airway resistance increase ratio one minute after induction vs medium administration group, read-out: Inhibition (%) against immediate type allergy
[2] = AUC4-8 of airway resistance increase ratio 4-8 hours after induction vs medium administration group, read-out: Inhibition (%) against delayed type allergy

SMILES | inhibition in vivo at 10 mg/kg [1] | inhibition in vivo at 10 mg/kg [2]
COc1ccc2c(O)c(O)c(=O)oc2c1 [Comparative Compound (1), 3,4-dihydroxy-7-methoxy-2H-1-benzopyran-2-one, reference compound] | 5.7% | 21.9%
CCCCCCCCCCOc1ccc2c(O)c(OC)c(=O)oc2c1 [Comparative Compound (2), 3-methoxy-4-hydroxy-7-decyloxy-2H-1-benzopyran-2-one, reference compound] | 6.5% | 20.2%
CCCCCCCCCCOc1cccc2c(OCCCC)c(O)c(=O)oc12 [Comparative Compound (3), 3-hydroxy-4-butoxy-8-decyloxy-2H-1-benzopyran-2-one, reference compound] | 5.2% | 24.3%
COc1ccc2c(O)c([C@@H]3O[C@H](CO)[C@@H](O)[C@H](O)[C@H]3O)c(=O)oc2c1 [Comparative Compound (4), 7-methoxy-4-hydroxy-3-(β-D-glucopyranosyl)-2H-1-benzopyran-2-one, reference compound] | 4.7% | 20.5%
CCCCOc1ccc2c([C@@H]3O[C@H](CO)[C@@H](O)[C@H](O)[C@H]3O)c(O)c(=O)oc2c1 [Comparative Compound (5), 7-butoxy-3-hydroxy-4-(β-D-glucopyranosyl)-2H-1-benzopyran-2-one, reference compound] | 6.8% | 22.4%
CCCCCCOc1c(O)c(=O)oc2cc([C@@H]3O[C@H](CO)[C@@H](O)[C@H](O)[C@H]3O)ccc12 [Comparative Compound (6), 3-hydroxy-4-hexyloxy-7-(β-D-glucopyranosyl)-2H-1-benzopyran-2-one, reference compound] | 5.9% | 24.1%
CCCCCCOc1c(O)c2c(OCCO)cccc2oc1=O [Compound (8), 3-hexyloxy-4-hydroxy-5-(2-hydroxyethoxy)-2H-1-benzopyran-2-one] | 14.1% | 58.2%
CCCCCCCCOc1c(O)c2c(OCCO)cccc2oc1=O [Compound (14), 3-octyloxy-4-hydroxy-5-(2-hydroxyethoxy)-2H-1-benzopyran-2-one] | 32.4% | 65.5%
CCCCCCOc1c(O)c2c(OCCCO)cccc2oc1=O [Compound (29), 3-hexyloxy-4-hydroxy-5-(3-hydroxypropyloxy)-2H-1-benzopyran-2-one] | 15.8% | 60.9%
CCCCCCOc1c(O)c2c(OCCC(O)CO)cccc2oc1=O (stereo not drawn) [Compound (53), 3-hexyloxy-4-hydroxy-5-(3,4-dihydroxybutoxy)-2H-1-benzopyran-2-one] | 19.3% | 59.8%
CCCCCCOc1c(O)c2c(OCC(=O)O)cccc2oc1=O [Compound (65), 3-hexyloxy-4-hydroxy-5-hydroxycarbonylmethoxy-2H-1-benzopyran-2-one] | 21.5% | 60.2%
CC(C)=CCC/C(C)=C/COc1c(O)c2c(OCC(=O)O)cccc2oc1=O [Compound (81), 3-geranyloxy-4-hydroxy-5-hydroxycarbonylmethoxy-2H-1-benzopyran-2-one] | 15.4% | 54.1%
CCCCCCOc1c(O)c2c(OCCCCC(=O)O)cccc2oc1=O [Compound (99), 3-hexyloxy-4-hydroxy-5-(4-hydroxycarbonylbutoxy)-2H-1-benzopyran-2-one] | 14.6% | 61.9%
CCCCCCOc1c(O)c2cc(OCCO)ccc2oc1=O [Compound (109), 3-hexyloxy-4-hydroxy-6-(2-hydroxyethoxy)-2H-1-benzopyran-2-one] | 14% | 66.8%
CCCCCCCCOc1c(O)c2cc(OCCO)ccc2oc1=O [Compound (115), 3-octyloxy-4-hydroxy-6-(2-hydroxyethoxy)-2H-1-benzopyran-2-one] | 31.8% | 61.7%
CCOc1c(O)c2cc(OCCCCO)ccc2oc1=O [Compound (137), 3-ethoxy-4-hydroxy-6-(4-hydroxybutoxy)-2H-1-benzopyran-2-one] | 8.3% | 58.9%
CCCCCCOc1c(O)c2cc(OCC(O)CO)ccc2oc1=O (stereo not drawn) [Compound (147), 3-hexyloxy-4-hydroxy-6-(2,3-dihydroxypropyloxy)-2H-1-benzopyran-2-one] | 19.1% | 59.5%
CCCCCCOc1c(O)c2cc(OCC(=O)O)ccc2oc1=O [Compound (166), 3-hexyloxy-4-hydroxy-6-hydroxycarbonylmethoxy-2H-1-benzopyran-2-one] | 23.5% | 64.1%
CCCCCCC=COc1c(O)c2cc(OCCCCC(=O)O)ccc2oc1=O [Compound (202), 3-(1-octenyloxy)-4-hydroxy-6-(4-hydroxycarbonylbutoxy)-2H-1-benzopyran-2-one] | 19.9% | 57.8%
CCCCOc1c(O)c2ccc(OCCO)cc2oc1=O [Compound (207), 3-butoxy-4-hydroxy-7-(2-hydroxyethoxy)-2H-1-benzopyran-2-one] | 8.5% | 71.7%
CCCCCCOc1c(O)c2ccc(OCCO)cc2oc1=O [Compound (210), 3-hexyloxy-4-hydroxy-7-(2-hydroxyethoxy)-2H-1-benzopyran-2-one] | 14.2% | 71.4%
CCCCCCCCOc1c(O)c2ccc(OCCO)cc2oc1=O [Compound (216), 3-octyloxy-4-hydroxy-7-(2-hydroxyethoxy)-2H-1-benzopyran-2-one] | 38.8% | 72.5%
CC(C)=CCC/C(C)=C/COc1c(O)c2ccc(OCCO)cc2oc1=O [Compound (226), 3-geranyloxy-4-hydroxy-7-(2-hydroxyethoxy)-2H-1-benzopyran-2-one] | 22.8% | 61.5%
CCCCCCCCOc1c(O)c2ccc(OCC(O)CO)cc2oc1=O (stereo not drawn) [Compound (249), 3-octyloxy-4-hydroxy-7-(2,3-dihydroxypropyloxy)-2H-1-benzopyran-2-one] | 28.8% | 63.4%
CCCCCCOc1c(O)c2ccc(OCC(=O)O)cc2oc1=O [Compound (267), 3-hexyloxy-4-hydroxy-7-hydroxycarbonylmethoxy-2H-1-benzopyran-2-one] | 14% | 62.2%
CCCCCCCCOc1c(O)c2ccc(OCC(=O)O)cc2oc1=O [Compound (273), 3-octyloxy-4-hydroxy-7-hydroxycarbonylmethoxy-2H-1-benzopyran-2-one] | 32.9% | 64.5%
CCCCCCOc1c(O)c2ccc(OCCC(=O)O)cc2oc1=O [Compound (288), 3-hexyloxy-4-hydroxy-7-(2-hydroxycarbonylethoxy)-2H-1-benzopyran-2-one] | 13.4% | 59.1%
CCCCCCOc1c(O)c2cccc(OCCO)c2oc1=O [Compound (311), 3-hexyloxy-4-hydroxy-8-(2-hydroxyethoxy)-2H-1-benzopyran-2-one] | 11.9% | 55.4%
CCCCCCOc1c(O)c2cccc(OCC(O)CO)c2oc1=O (stereo not drawn) [Compound (349), 3-hexyloxy-4-hydroxy-8-(2,3-dihydroxypropyloxy)-2H-1-benzopyran-2-one] | 12.5% | 57.2%
CCCCCCOc1c(O)c2cccc(OCC(=O)O)c2oc1=O [Compound (368), 3-hexyloxy-4-hydroxy-8-hydroxycarbonylmethoxy-2H-1-benzopyran-2-one] | 24.8% | 60%
